On this data set, the source says:
The solubility of lactide in different solvents was investigated.

The record followed here is US9045781B2, “Process for the production of optically-active esters of lactic acid and lactyllactic acid” (Plaxica Limited, priority 2011, dated 2015).

`CC1OC(=O)C(C)OC1=O` (racemic) [lactide, 3,6-dimethyl-1,4-dioxan-2,5-dione]: the “Solubility of lactide in a n-BuOH/acetone system” value was found to be 1.44 g and the “Solubility of lactide in different solvents, rank order” value is given as “Acetone>>n-BuOH>t-BuOH”.
